From ChEMBL document CHEMBL1833830, “1-[2-(2-Benzoyl- and 2-benzylphenoxy)ethyl]uracils as potent anti-HIV-1 agents” (Bioorg Med Chem, 2011)
≈ marks a conversion by molar mass, not a printed value. Calls of active or inactive are those of the source. No cut-off for these calls is given here.

Columns and labels:
Human respirovirus 3 = test: Antiviral activity against Parainfluenza 3 virus assessed as inhibition of viral replication; format: functional, organism-based
[1] = system: Mammalian orthoreovirus 1; test: Antiviral activity against Reovirus 1 assessed as inhibition of viral replication; format: functional, organism-based
Sindbis virus = test: Antiviral activity against Sindbis virus assessed as inhibition of viral replication; format: functional, organism-based
[2] = system: Vesicular stomatitis virus; test: Antiviral activity against Vesicular stomatitis virus assessed as inhibition of viral replication; format: functional, organism-based
[3] = system: Respiratory syncytial virus; test: Antiviral activity against Respiratory syncytial virus assessed as inhibition of viral replication; format: functional, organism-based
Coxsackievirus B4 = test: Antiviral activity against Coxsackievirus B4 assessed as inhibition of viral replication; format: functional, organism-based
Feline coronavirus = test: Antiviral activity against Feline coronavirus assessed as inhibition of viral replication; format: functional, organism-based
Yellow fever virus = test: Antiviral activity against Yellow fever virus assessed as inhibition of viral replication; format: functional, organism-based
Dengue virus = test: Antiviral activity against Dengue virus assessed as inhibition of viral replication; format: functional, organism-based
Rift Valley fever virus = test: Antiviral activity against Rift Valley fever virus assessed as inhibition of viral replication; format: functional, organism-based
Punta Toro virus = test: Antiviral activity against Punta Toro virus assessed as inhibition of viral replication; format: functional, organism-based
West Nile virus = test: Antiviral activity against West Nile virus assessed as inhibition of viral replication; format: functional, organism-based
[4] = Inhibition of DNA-dependent DNA polymerase activity of HIV1 reverse transcriptase p66/p66 homodimer using activated DNA and [alpha-32P]dATP after 30 mins by liquid scintillation counting; set-up: species or system Human immunodeficiency virus 1
[5] = molecular target: Human immunodeficiency virus type 1 reverse transcriptase (Human immunodeficiency virus 1, UniProt Q72547); test: Inhibition of RNA-dependent DNA polymerase activity of HIV1 reverse transcriptase p66/p51 heterodimer using [8-3H]dGTP as substrate after 30 mins by liquid scintillation counting
[6] = Solubility of the compound in 10% DMSO after overnight incubation by UV spectrometric analysis; format: physicochemical
[7] = Solubility of the compound in 0.1% DMSO after overnight incubation by UV spectrometric analysis; format: physicochemical
[8] = system: Human immunodeficiency virus 2; test: Antiviral activity against Human immunodeficiency virus type 2 ROD infected in human CEM cells assessed as inhibition of virus-induced giant cell formation after 4 days by microscopic analysis; format: functional, organism-based; details: ISOLATE ROD, CCRF-CEM
[9] = system: Human immunodeficiency virus 2; test: Antiviral activity against Human immunodeficiency virus type 2 ROD infected in human MT4 cells assessed as inhibition of virus-induced cytopathic effect after 4 days by MTT assay; format: functional, organism-based; details: ISOLATE ROD
[10] = system: Human immunodeficiency virus 1; format: functional, organism-based; details: Human immunodeficiency virus 1, 3B, MT4, 96 h
[11] = Cytotoxicity against human MT4 cells after 4 days by MTT assay; format: cell-based
Human alphaherpesvirus 1 = test: Antiviral activity against HSV1 assessed as inhibition of viral replication; format: functional, organism-based
Human alphaherpesvirus 2 = test: Antiviral activity against HSV-2 assessed as inhibition of viral replication; format: functional, organism-based
Vaccinia virus = test: Antiviral activity against Vaccinia virus assessed as inhibition of viral replication; format: functional, organism-based; details: Orthopoxvirus vaccinia
in vitro [12] = details: human, MT4 cells
in vitro [13] = details: human, MT4 cells; remark: listed apart in the source
[14] = system: Human immunodeficiency virus 1; test: microbe, parasite or virus in culture; details: Human immunodeficiency virus 1, 3B, MT4, 96 h

| SMILES | Activity (Human respirovirus 3) | Activity [1] | Activity (Sindbis virus) | Activity [2] | Activity [3] | Activity (Coxsackievirus B4) | Activity (Feline coronavirus) | Activity (Yellow fever virus) | Activity (Dengue virus) | Activity (Rift Valley fever virus) | Activity (Punta Toro virus) | Activity (West Nile virus) | Ki [4] [µM] | Ki [5] [µM] | Activity [8] | Activity [9] | EC50 [10] [µM] | CC50 at 96 h [11] [µM] | Activity (Human alphaherpesvirus 1) | Activity (Human alphaherpesvirus 2) | also measured |
| --- | --- | --- | --- | --- | --- | --- | --- | --- | --- | --- | --- | --- | --- | --- | --- | --- | --- | --- | --- | --- | --- |
| Cc1cc(C)cc(C(=O)c2cc(Br)ccc2OCCn2ccc(=O)[nH]c2=O)c1 | inactive | inactive | inactive | inactive | inactive | inactive | inactive | inactive | inactive | inactive | inactive | inactive | 0.77 | 1.7 | inactive | inactive | > 282 | > 282 | inactive | inactive | solubility [6]: 6.6 µM (≈ 2.93 µg/mL); solubility [7]: 1.8 µM (≈ 0.798 µg/mL); Activity (Vaccinia virus): inactive; selectivity ratio (in vitro [12]): > 12300; selectivity ratio (in vitro [13]): 1; EC50 [14]: 0.023 µM |
| Cc1cccc(C(=O)c2cc(Cl)ccc2OCCn2ccc(=O)[nH]c2=O)c1 | inactive | inactive | inactive | inactive | inactive | inactive | inactive | inactive | inactive | inactive | inactive | inactive | 0.49 | 0.21 | inactive | inactive | 52 | > 325 | inactive | inactive | Activity (Vaccinia virus): inactive; selectivity ratio (in vitro [12]): > 6250; selectivity ratio (in vitro [13]): > 6; EC50 [14]: 0.052 µM |
| Cc1cc(C)cc(C(=O)c2cc(Cl)ccc2OCCn2c(C)cc(=O)[nH]c2=O)c1 | inactive | inactive | inactive | inactive | inactive | inactive | inactive | inactive | inactive | inactive | inactive | inactive | 0.73 | 1.7 | inactive | inactive | 4.09 | > 303 | inactive | inactive | Activity (Vaccinia virus): inactive; selectivity ratio (in vitro [12]): > 15100; selectivity ratio (in vitro [13]): > 74; EC50 [14]: 0.02 µM |
| O=C(c1cc(F)cc(F)c1)c1cc(Cl)ccc1OCCn1ccc(=O)[nH]c1=O | inactive | inactive | inactive | inactive | inactive | inactive | inactive | inactive | inactive | inactive | inactive | inactive | 0.77 | 0.36 | inactive | inactive | > 307 | > 307 | inactive | inactive | solubility [6]: 17.6 µM (≈ 7.16 µg/mL); solubility [7]: 7.3 µM (≈ 2.97 µg/mL); Activity (Vaccinia virus): inactive; selectivity ratio (in vitro [12]): > 11400; selectivity ratio (in vitro [13]): 1; EC50 [14]: 0.027 µM |
| O=C(c1cc(Br)cc(Br)c1)c1cc(Cl)ccc1OCCn1ccc(=O)[nH]c1=O | inactive | inactive | inactive | inactive | inactive | inactive | inactive | inactive | inactive | inactive | inactive | inactive | 2.3 | 0.47 | inactive | inactive | > 237 | > 236 | inactive | inactive | Activity (Vaccinia virus): inactive; selectivity ratio (in vitro [12]): > 7390; selectivity ratio (in vitro [13]): 1; EC50 [14]: 0.032 µM |
| Cc1cc(C)cc(C(=O)c2cc(Cl)ccc2OCCn2cc(C)c(=O)[nH]c2=O)c1 | inactive | inactive | inactive | inactive | inactive | inactive | inactive | inactive | inactive | inactive | inactive | inactive | 1.2 | 1.1 | inactive | inactive | 4.09 | > 303 | inactive | inactive | Activity (Vaccinia virus): inactive; selectivity ratio (in vitro [12]): > 6880; selectivity ratio (in vitro [13]): > 74; EC50 [14]: 0.044 µM |
| O=C(c1ccccc1)c1cc(Br)ccc1OCCn1ccc(=O)[nH]c1=O | inactive | inactive | inactive | inactive | inactive | inactive | inactive | inactive | inactive | inactive | inactive | inactive | 2 | 0.45 | inactive | inactive | > 301 | > 301 | inactive | inactive | Activity (Vaccinia virus): inactive; selectivity ratio (in vitro [12]): > 4630; selectivity ratio (in vitro [13]): 1; EC50 [14]: 0.065 µM |
| Cc1ccc(OCCn2ccc(=O)[nH]c2=O)c(C(=O)c2ccccc2)c1 | inactive | inactive | inactive | inactive | inactive | inactive | inactive | inactive | inactive | inactive | inactive | inactive | 5.6 | 1.7 | inactive | inactive | > 357 | > 357 | inactive | inactive | Activity (Vaccinia virus): inactive; selectivity ratio (in vitro [12]): > 1140; selectivity ratio (in vitro [13]): 1; EC50 [14]: 0.31 µM |
| O=C(c1ccccc1)c1cc(Cl)ccc1OCCn1ccc(=O)[nH]c1=O | inactive | inactive | inactive | inactive | inactive | inactive | inactive | inactive | inactive | inactive | inactive | inactive | 0.98 | 0.65 | inactive | inactive | > 337 | > 337 | inactive | inactive | Activity (Vaccinia virus): inactive; selectivity ratio (in vitro [12]): > 3790; selectivity ratio (in vitro [13]): 1; EC50 [14]: 0.089 µM |
| O=C(c1ccccc1)c1cc(F)ccc1OCCn1ccc(=O)[nH]c1=O | inactive | inactive | inactive | inactive | inactive | inactive | inactive | inactive | inactive | inactive | inactive | inactive | 2.9 | 2.6 | inactive | inactive | 171 | > 353 | inactive | inactive | Activity (Vaccinia virus): inactive; selectivity ratio (in vitro [12]): > 694; selectivity ratio (in vitro [13]): > 2; EC50 [14]: 0.51 µM |
